Experimental data from publication PMC9841589, “Identification of 2-Aminoacyl-1,3,4-thiadiazoles as Prostaglandin E2 and Leukotriene Biosynthesis Inhibitors” (ACS Medicinal Chemistry Letters, 2022).

Legend:
COX-1 = molecular target: T1, COX-1 (Ovis aries, UniProt P05979); test: Cell-free COXs activity assay, COX-1; type: biochemical, ovine; settings: percentage of uninhibited control (100%), n = 3, n.i.: no inhibitory activity observed, read-out: COX-1 residual activity (%)
T1 sequence (P05979 25-600): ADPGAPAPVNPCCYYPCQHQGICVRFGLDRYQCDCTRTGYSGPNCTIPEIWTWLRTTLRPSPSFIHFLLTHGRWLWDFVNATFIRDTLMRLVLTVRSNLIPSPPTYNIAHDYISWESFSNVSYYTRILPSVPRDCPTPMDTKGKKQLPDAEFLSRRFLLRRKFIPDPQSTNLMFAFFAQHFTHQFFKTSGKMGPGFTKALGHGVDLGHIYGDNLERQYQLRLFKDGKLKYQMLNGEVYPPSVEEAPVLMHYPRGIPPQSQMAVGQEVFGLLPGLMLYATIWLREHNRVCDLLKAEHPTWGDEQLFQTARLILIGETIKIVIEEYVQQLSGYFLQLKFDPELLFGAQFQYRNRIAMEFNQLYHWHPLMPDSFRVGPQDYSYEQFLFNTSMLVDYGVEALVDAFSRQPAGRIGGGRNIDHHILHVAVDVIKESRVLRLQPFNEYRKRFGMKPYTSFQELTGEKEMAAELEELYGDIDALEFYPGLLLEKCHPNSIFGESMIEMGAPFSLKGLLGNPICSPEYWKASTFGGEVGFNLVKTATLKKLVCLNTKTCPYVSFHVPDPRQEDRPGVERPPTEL
Method: Cell-free COXs activity assay
Isolated COX-1 (ovine) and COX-2 (human) were used for the evaluation of the activity of test compounds 3, 6, 7, and 9 on cyclooxygenases. COXs were diluted using Tris buffer (100 mM, pH = […]
8) plus 5 mM glutathione, 100 µM EDTA and 5 µM hemoglobin) to a final concentration of 50 U/mL for COX-1 and 20 U/mL for COX-2, and pre-incubated with test compounds 3, 6, 7, and 9 (10 µM) or vehicle (0.1% DMSO) over 5 min at rt. After 1 min at 37 °C, reactions were started after addition of arachidonic acid to a final concentration of 5 µM for COX-1 and 2 µM for COX-2. After 5 min at 37 °C, 1 mL of ice-cold methanol was added for stopping the reactions on ice. Then, PGB 1 as internal standard and 530 µl PBS plus HCl were added, and solid-phase extraction was performed as reported before.4-6, 17-19 COXs product formation (12-HHT) was determined using RP-HPLC. 4-6, 17-19 Indomethacin (10 µM) and celecoxib (5 µM) were used as reference drugs.
Expression, purification and activity assay of human recombinant sEH
Human recombinant sEH was expressed in Sf9 cells and was infected using a baculovirus, provided by Dr. B. Hammock, University of California, Davis, CA. After 72 hours, cells were pelleted and sonicated (3 × 10 sec) at 4 °C in lysis buffer (50 mM NaHPO 4, pH = 8, 300 mM NaCl, 10% glycerol, 1 mM EDTA, 1 mM phenylmethanesulfonyl fluoride, 10 µg/mL of leupeptin, and 60 µg/mL of soybean trypsin inhibitor). Lysates were centrifuged over 60 min at 4 °C (100,000 × g), and supernatants were collected and submitted to a benzylthio-sepharose-affinity chromatography for sEH purification by elution with 4-fluorochalcone oxide in PBS plus 1 mM DTT and 1 mM EDTA.720 […]
DMSO) for 15 min at rt. 50 µM 3-phenyl-cyano(6-methoxy-2-naphthalenyl)methyl ester-2-oxiraneacetic acid (PHOME), a non-fluorescent compound, was added for starting the reaction.
PHOME is enzymatically converted into a fluorescent compound, 6-methoxy-naphtaldehyde, detectable by using a spectrofluorometer setting λ em = 465 nm, λ ex = 330 nm. After 60 min, ZnSO 4

[1] = tested on: PGE2 production in IL-1β-stimulated A549 cells; test: Inhibition of PGE2 production in IL-1β-stimulated A549 cells; type: cell-based, human; settings: A549, IL-1β 10 ng/mL, 5 and 10 μM, 24 h, ELISA
Method: Figure 3 (A) A549 cells in conditioned medium (1% FBS and 10 ng/mL IL-1β) were incubated for 24 h with 5 and 10 μM of compound 3, 6, 7, and 9. PGE2 released into the medium was quantified using a specific ELISA. Control cells were stimulated with IL-1β, treated with vehicle (DMSO), and expressed as mean ± SEM (pg/mL), n = 2. (B) A549 cell line was used to perform a MTT assay. A549 were treated with 3, 6, 7, and 9 (test compounds, 10 μM), staurosporine (1 μM, positive control), or vehicle (0.1% DMSO) for 48 h. (C) Human monocytes were used to perform a MTT assay. Cells were treated with 3, 6, 7, and 9 (test compounds, 10 μM), Triton X-100 (1%, positive control), or vehicle (0.5% DMSO) for 24 h. Data are expressed as a percentage of control (100%), means, SEM, n = 3.
Carslbad, CA, USA), in 5% CO2 humid atmosphere. The cells were subcultured every 2 days and were tested for Mycoplasma using PCR analysis.Inhibition of PGE2 production in cells A549 cells were plated at 10.000 cells/well in DMEM with 10% FBS-medium in a 96-well plate; after overnight incubation, the cells were treated with 5 and 10 µM of 3, 6, 7, 9 compounds in DMEM 1%FBS and IL-1β (10 ng/ml) to upregulate PG synthase expression.
After 24 h, the amount of PGE2 released in the supernatant was evaluated by a commercially available enzyme immunoassay kit (Prostaglandin E2 EIA kit Monoclonal, Cayman Chemical), and at the same time was evaluated cell viability by MTT using (3-4,5-[…])-2,5-diphenyl tetrazolium bromide reagent (Sigma-Aldrich). Following the treatment, 20 µL of MTT (5 mg/mL in PBS) was added, and the cells were incubated for additional 3 h at 37°C. […]
The absorbance was measured at 570 nm with a Multiskan™ GO Microplate Spectrophotometer (Thermo Fisher Scientific, USA). […]
MTT (5 mg/mL) was added, and after 1 h (37 °C, 5% CO 2) the medium was replaced with DMSO (100 µL per well). Finally, formazan formation was detected by the measurement of absorbance at […]
Acute cytotoxicity of compounds 3, 6, 7, 9 was analyzed on human monocytes. […]

SMILES: O=C(Nc1nnc(-c2ccc(-c3cccc(O)c3)cc2)s1)c1ccccc1Br [compound 3]
- remaining activity at 10 µM (COX-1): 104%

SMILES: Nc1ccccc1-c1ccc(-c2nnc(NC(=O)c3ccccc3Br)s2)cc1 [compound 7]
- PGE2 released into the medium [1]: able to suppress the biosynthesis of PGE2 in a concentration-dependent manner
- remaining activity at 10 µM (COX-1): 98.1%

SMILES: Cc1cc(C(=O)Nc2nnc(-c3ccc(-c4ccccc4N)cc3)s2)cc(Cl)n1 [compound 6]
- PGE2 released into the medium [1]: able to suppress the biosynthesis of PGE2 in a concentration-dependent manner
- remaining activity at 10 µM (COX-1): 82.3%

SMILES: Nc1ccccc1-c1ccc(-c2nnc(NC(=O)c3c(Cl)ccnc3Cl)s2)cc1 [compound 9]
- PGE2 released into the medium [1]: able to suppress the biosynthesis of PGE2 in a concentration-dependent manner
- remaining activity at 10 µM (COX-1): 107%
